Molecules are shown by their SMILES.

The test system of the experiment is mouse medulloblastoma (Patched 1(+/-), p53(-/-)) subcutaneously transplanted into nude mouse. In words: In vivo anti-tumor test, mouse medulloblastoma allogeneic transplantation model. Particulars: 1 mg/kg, orally twice a day for 2 weeks, 0.5% methylcellulose suspension; nude mouse with subcutaneous medulloblastoma; at the end of the test; p < 0.025 (Dunnett's test). As to the method: According to the description in Sasaki, K. et al., (2006) Cancer Res. 66: 4215-4222, an anti-tumor effect of a compound was evaluated using a mouse medulloblastoma allogeneic transplantation model. To be precise, Patched 1 gene mutant mouse (lineage name: Ptch1tm1Mps/J) was purchased from The Jackson Laboratory and p53 gene mutant mouse (lineage name: P53N4-M, Nomenclature: B6.129-Trp53tm/BrdN4) was purchased from Taconic, and a mouse of Patched 1(+/−), p53(−/−) phenotype was prepared by mating. […]
An anti-tumor test was performed using a tumor passaged by subcutaneous transplantation. […] The tumor diameter after transplantation was measured and, when the tumor size reached 150-250 mm^3, the anti-tumor test was started using 5 mice per group.
The test compound was prepared to achieve a dose of 1 mg/kg with a 0.5% methylcellulose (Shin-Etsu Chemical Co. Ltd., Cat. No. SM-100) suspension, and orally administered twice a day for 2 weeks. The tumor size was calculated based on the longer diameter and shorter diameter of the tumor measured with an electron vernier caliper. After the start of the test, the tumor size was measured every 2 or 3 days and the growth rate of the tumor size was calculated. […]

As to `CCc1cc2c(c(OCC(F)(F)F)c(C(=O)NC3CCN(C(=O)CO)CC3)n2C)c(=O)n1-c1ccc(F)cc1` [Example 5, 6-ethyl-5-(4-fluorophenyl)-N-[1-(hydroxyacetyl)piperidin-4-yl]-1-methyl-4-oxo-3-(2,2,2-trifluoroethoxy)-4,5-dihydro-1H-pyrrolo[3,2-c]pyridine-2-carboxamide], the “T/C (%) growth rate of the tumor size” value is recorded as 42%.

As for `CCc1cc2c(c(OC(C)C)c(C(=O)NC3CCN(C(=O)CO)CC3)n2C)c(=O)n1-c1ccc(F)cc1` [Example 7, 6-ethyl-5-(4-fluorophenyl)-N-[1-(hydroxyacetyl)piperidin-4-yl]-1-methyl-3-(1-methylethoxy)-4-oxo-4,5-dihydro-1H-pyrrolo[3,2-c]pyridine-2-carboxamide], the “T/C (%) growth rate of the tumor size” value is listed as 40%.

These data come from US8907089B2, “Fused heterocyclic ring derivative and use thereof” (Takeda Pharmaceutical Company Limited, priority 2009, dated 2014).
